In PubChem BioAssay AID1919009 (Molecular Pharmacology Branch, DTP, NCI, 2023):

Tested on: K24384-001-R-PDC complex spheroid growth
Assay: Anticancer human tumor K24384-001-R-PDC patient-derived pancreatic adenocarcinoma cell line growth inhibition [AhR]
Details: for IC50: curve of first compound; for viability, T/C: stronger effect = lower value
Description: Multicellular complex tumor spheroid response to aryl hydrocarbon receptor antagonists in combination with a variety of drugs and investigational agents in selected tumor cell lines
The current study was undertaken to assess response to aryl hydrocarbon receptor antagonists in combination with standard-of-care drugs and investigational agents in solid tumor complex spheroid models. Complex spheroids include a stromal component modeled by human endothelial cells (HUVEC) and fibroblasts modeled by human mesenchymal stem cells (MSCs). The concentration ranges selected for each drug and investigational agent were based upon clinically achievable concentrations if the clinical Cmax of the agent was known.
Compounds. The drugs and investigational agents: BAY 2416964 (NSC825713), GNF351 (NSC835774), CH-223191 (NSC835775), CPI-455 (NSC825282), aza-TdCyd (NSC777586), decitabine (NSC127716), belinostat (NSC758774), entinostat (NSC756642), pevonedistat (NSC761192), tazemetostat (NSC777109), talazoparib (NSC765396), olaparib (NSC753686), selinexor (NSC780203), nedisertib (M3814, NSC802822), bortezomib (NSC756655), venetoclax (NSC766270), doxorubicin (NSC123127), elimusertib (BAY189344, NSC800525), ceralasertib (AZD6738, NSC777638), TAK-243 (NSC785004), alisertib (NSC759677), etoposide (NSC141540), topotecan (NSC609699), eribulin (NSC707389), gemcitabine (NSC613327), carboplatin (NSC241240), cisplatin (NSC119875), and SN-38 (NSC673596) were obtained from the National Cancer Institute (NCI) Developmental Therapeutics Program Chemical Repository (32). The FDA-approved anticancer drug set is available from the Developmental Therapeutics Program at https://dtp.cancer.gov/organization/dscb/obtaining/available plates.htm. […] The stock solutions were prepared in dimethyl sulfoxide (DMSO, Sigma-Aldrich, St. Louis, MO, cat. D2650), except for the platinum compounds which were prepared in saline (Quality Biological, Gaithersburg, MD, cat. 114-055-101), at 800-fold the tested concentration and stored at -70 degrees C prior to their use. All drugs and investigational agents were tested over a range starting from a high concentration at or near the clinical Cmax and decreasing in half-log increments. If the clinical Cmax for an agent had not been determined, the highest concentration tested was 10 microM (Table 1).
Cell Culture. All cells were maintained in an incubator at 37 degrees C and 5% CO2 with 95% humidity. The PDC lines were cultured according to standard operating procedures established by the NCI PDMR (https://pdmr.cancer.gov). Briefly, all PDCs were thawed and cultured in Matrigel-coated flasks prepared with a working solution of 1X Ham's F-12 nutrient mix, without supplementation (Invitrogen, Waltham, MA, cat. 11765054), 100 U/mL penicillin-streptomycin (Invitrogen, cat. 15140122), and 2.5% Matrigel (Corning Inc., Corning, NY, cat. 354248) for the first three passages. All PDCs were cultured in complete DMEM/F-12 media containing advanced DMEM/F-12 (Invitrogen, cat. 12634028), 4.9% defined fetal bovine serum, heat inactivated (HyClone Laboratories Inc., Logan, UT, cat. SH30070.03HI), 389 ng/mL hydrocortisone (Sigma-Aldrich, cat. H4001), 9.7 ng/mL human EGF recombinant protein (Invitrogen, cat. PHG0313), 23.4 microg/mL adenine (Sigma-Aldrich, cat. A2786), 97.3 U/mL penicillin-streptomycin (Invitrogen, cat. 15140122), 1.9 mM L-glutamine (Invitrogen, cat. 25030081), and 9.7 microM Y-27632 dihydrochloride (Tocris Bioscience, Bristol, United Kingdom, cat. 1254). The PDCs were cultured in complete DMEM/F12 media without 10 microM Y-27632 dihydrochloride for at least two passages prior to the screen. The established cell lines NCI-H1341 and […] were cultured in DMEM/F-12, HEPES (Invitrogen, cat. 11330032), 5% defined fetal bovine serum (HyClone Laboratories Inc., cat. SH30070.03), ITS premix universal culture supplement [insulin (5 microg/mL), transferrin (5 microg/mL), and selenious acid (5 ng/mL)] […]

[1] = second compound 0.1 µM, first compound 0.0316 µM
[2] = second compound 0.1 µM, first compound 0.1 µM
[3] = second compound 0.1 µM, first compound 0.316 µM
[4] = second compound 0.1 µM, first compound 1 µM
[5] = second compound 0.1 µM, first compound 3.16 µM
[6] = second compound 0.1 µM, first compound 10 µM
[7] = second compound 0.316 µM, first compound 0.0316 µM
[8] = second compound 0.316 µM, first compound 0.1 µM
[9] = second compound 0.316 µM, first compound 0.316 µM
[10] = second compound 0.316 µM, first compound 1 µM
[11] = second compound 0.316 µM, first compound 3.16 µM
[12] = second compound 0.316 µM, first compound 10 µM
[13] = second compound 1 µM, first compound 0.0316 µM
[14] = second compound 1 µM, first compound 0.1 µM
[15] = second compound 1 µM, first compound 0.316 µM
[16] = second compound 1 µM, first compound 1 µM
[17] = second compound 1 µM, first compound 3.16 µM
[18] = second compound 1 µM, first compound 10 µM
[19] = second compound 3.16 µM, first compound 0.0316 µM
[20] = second compound 3.16 µM, first compound 0.1 µM
[21] = second compound 3.16 µM, first compound 0.316 µM
[22] = second compound 3.16 µM, first compound 1 µM
[23] = second compound 3.16 µM, first compound 3.16 µM
[24] = second compound 3.16 µM, first compound 10 µM
[25] = second compound 10 µM, first compound 0.0316 µM
[26] = second compound 10 µM, first compound 0.1 µM
[27] = second compound 10 µM, first compound 0.316 µM
[28] = second compound 10 µM, first compound 1 µM
[29] = second compound 10 µM, first compound 3.16 µM
[30] = second compound 10 µM, first compound 10 µM
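Throughout, for viability, T/C: percent of DMSO vehicle-treated spheroid viability set as 100%.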

| SMILES | IC50 (second compound 0.1 µM) [nM] | IC50 (second compound 0.316 µM) [nM] | IC50 (second compound 1 µM) [nM] | IC50 (second compound 3.16 µM) [nM] | IC50 (second compound 10 µM) [nM] | viability, T/C [1] [%] | viability, T/C [2] [%] | viability, T/C [3] [%] | viability, T/C [4] [%] | viability, T/C [7] [%] | viability, T/C [8] [%] | viability, T/C [9] [%] | viability, T/C [10] [%] | viability, T/C [13] [%] | viability, T/C [14] [%] | viability, T/C [15] [%] | viability, T/C [16] [%] | viability, T/C [19] [%] | viability, T/C [20] [%] | viability, T/C [21] [%] | other results |
| --- | --- | --- | --- | --- | --- | --- | --- | --- | --- | --- | --- | --- | --- | --- | --- | --- | --- | --- | --- | --- | --- |
| COc1cc(C2c3cc4c(cc3C(OC3OC5COC(C)OC5C(O)C3O)C3COC(=O)C23)OCO4)cc(OC)c1O (stereo not given) + CC(CO)NC(=O)c1cc(-c2ccc(Cl)cc2)nn(-c2cnn(C)c2)c1=O | 1710 | 921 | 1170 | 764 | 611 | 96.8 | 102 | 75.9 | 60.8 | 89.5 | 93.4 | 78.1 | 48.4 | 95.9 | 96.4 | 78.1 | 52.7 | 74.6 | 82.4 | 80.4 | viability, T/C [5]: 39.8%; viability, T/C [6]: 33.5%; viability, T/C [11]: 30%; viability, T/C [12]: 28.5%; viability, T/C [17]: 36%; viability, T/C [18]: 30.8%; viability, T/C [22]: 41.2%; viability, T/C [23]: 33.4%; viability, T/C [24]: 29.6%; viability, T/C [25]: 70.8%; viability, T/C [26]: 72.9%; viability, T/C [27]: 57.2%; viability, T/C [28]: 44.7%; viability, T/C [29]: 34.1%; viability, T/C [30]: 33.7% |
| COc1cccc2c1C(=O)c1c(O)c3c(c(O)c1C2=O)CC(O)(C(=O)CO)CC3OC1CC(N)C(O)C(C)O1 (stereo not given) + CC(CO)NC(=O)c1cc(-c2ccc(Cl)cc2)nn(-c2cnn(C)c2)c1=O | 78 | 83.2 | 71.2 | 67.7 | 52.4 | 60.8 | 45.7 | 26.5 | 8.5 | 62 | 46.9 | 22.6 | 5.23 | 64.4 | 43 | 22.3 | 5.55 | 58.1 | 44.5 | 24.4 | viability, T/C [5]: 2.41%; viability, T/C [6]: 9.56%; viability, T/C [11]: 3.01%; viability, T/C [12]: 8.52%; viability, T/C [17]: 2.67%; viability, T/C [18]: 9.64%; viability, T/C [22]: 4.46%; viability, T/C [23]: 3.77%; viability, T/C [24]: 8.98%; viability, T/C [25]: 52.8%; viability, T/C [26]: 46.4%; viability, T/C [27]: 17.9%; viability, T/C [28]: 2.07%; viability, T/C [29]: 3.16%; viability, T/C [30]: 10.2% |
| Nc1ncn(C2CC(O)C(CO)O2)c(=O)n1 (stereo not given) + CC(CO)NC(=O)c1cc(-c2ccc(Cl)cc2)nn(-c2cnn(C)c2)c1=O | > 1000 | > 1000 | > 1000 | > 1000 | > 1000 | 109 | 65.8 | 87.7 | 67.5 | 109 | 76.2 | 69.9 | 63.8 | 112 | 95.8 | 75.4 | 62.8 | 81.3 | 67.9 | 59.2 | viability, T/C (second compound 0.1 µM, first compound 0.00316 µM): 110%; viability, T/C (second compound 0.1 µM, first compound 0.01 µM): 116%; viability, T/C (second compound 0.316 µM, first compound 0.00316 µM): 105%; viability, T/C (second compound 0.316 µM, first compound 0.01 µM): 111%; viability, T/C (second compound 1 µM, first compound 0.00316 µM): 98.2%; viability, T/C (second compound 1 µM, first compound 0.01 µM): 93.4%; viability, T/C (second compound 3.16 µM, first compound 0.00316 µM): 74.3%; viability, T/C (second compound 3.16 µM, first compound 0.01 µM): 102%; viability, T/C [22]: 57.3%; viability, T/C (second compound 10 µM, first compound 0.00316 µM): 80.4%; viability, T/C (second compound 10 µM, first compound 0.01 µM): 83.1%; viability, T/C [25]: 79.3%; viability, T/C [26]: 67.1%; viability, T/C [27]: 58.2%; viability, T/C [28]: 63.2% |
